Among the data in patent US6613889B2, “Method for preparing salts of polyene macrolide esters” (BioSource Pharm, Inc., priority 2001, dated 2003) are solubility in water, pH of solution and stability values, retold here.

One data set can be described thus: solubility in water. The conditions noted are these: freeze-dried yellow powder. The data set is classed as physicochemical. From the text:
In order to facilitate removal of the aldehyde protective group of the Schiff base and to form the salt of the liberated free base ester, the Schiff base is stirred in water overnight, centrifuged and the insoluble product dried by lyophilization. HPLC and 300 Mhz NMR indicate that the product contains some p-chlorobenzaldehyde and is usually about a 50/50 mixture of the desired methyl ester and the corresponding Schiff base. The mixture is stirred in ethyl acetate to remove the excess aldehyde. The product is then dissolved in a solvent which is inert to the materials, is miscible with water, and can be removed from an aqueous solution as an azeotrope. Tetrahydrofuran or acetonitrile fulfil these requirements. […] A solution of amphotericin B methyl ester Schiff base/free base in tetrahydrofuran is diluted with water to approximately 75% THF but maintained in solution. To this solution is added dilute hydrochloric acid until the appropriate pH is reached. This causes the hydrolysis of the Schiff base and forms the hydochloride salt of amphotericin B methyl ester. The tetrahydrofuran is then removed as an azeotrope with water to obtain an aqueous solution of the AME.HCl and some insoluble material containing part of the aldehyde. The residual aldehyde in the aqueous solution of the AME.HCl is an impurity which can not be readily removed by filtration, centrifuging, or solvent extraction. […]

A further data set in a line: pH of a 1% solution. It is filed as physicochemical. Here is the method: A mixture of amphotericin B methyl ester and its p-chlorobenzilidine derivative (1.029 g) was dissolved in 40 ml o THF/H2O (4/1) and 0.90 ml of 1.0 M acetic acid solution was added dropwise. Water (40 ml) was added and THF was removed as an azeotrope at reduced pressure and 40° C. The resulting aqueous solution was passed through a column of Amberlite® XAD-2, then freeze-dried to afford 0.654 g of the acetate salt: E^1%1 cm=1100 at 382 nm in MeOH; a 1% solution had pH 5.30.

The conditions of data set [1]: at pH levels less than 4.0; cited from earlier work.

Turning to `COC(=O)[C@H]1[C@@H]2C[C@@H](O[C@@H]3O[C@H](C)[C@@H](O)[C@H](N)[C@@H]3O)/C=C/C=C/C=C/C=C/C=C/C=C/C=C/[C@H](C)[C@@H](O)[C@@H](C)[C@H](C)OC(=O)C[C@H](O)C[C@H](O)CC[C@@H](O)[C@H](O)C[C@H](O)C[C@](O)(C[C@@H]1O)O2.Cl` [AME.HCl, amphotericin B methyl ester hydrochloride], in the data set “solubility in water”, the solubility in water result is given as “highly soluble”.

In the data set “pH of a 1% solution”, `CC(=O)O.COC(=O)C1C(O)CC2(O)CC(O)CC(O)C(O)CCC(O)CC(O)CC(=O)OC(C)C(C)C(O)C(C)C=CC=CC=CC=CC=CC=CC=CC(OC3OC(C)C(O)C(N)C3O)CC1O2` (stereo not drawn) [Amphotericin B Methyl Ester Acetate] came in with a pH of solution of 5.30.

As to `COC(=O)[C@H]1[C@@H]2C[C@@H](O[C@@H]3O[C@H](C)[C@@H](O)[C@H](N)[C@@H]3O)/C=C/C=C/C=C/C=C/C=C/C=C/C=C/[C@H](C)[C@@H](O)[C@@H](C)[C@H](C)OC(=O)C[C@H](O)C[C@H](O)CC[C@@H](O)[C@H](O)C[C@H](O)C[C@](O)(C[C@@H]1O)O2` [AME, amphotericin B methyl ester], the stability entry in data set [1] is reported as “very unstable”.
